Results: patent US20250339409A1, “USES OF PAN BET INHIBITORS” (VYNE THERAPEUTICS INC., priority 2021, published 2025)
Where “and” joins values, the source holds several entries; their conditions need not be identical. Equal values may be shown once. Marks after values point to notes of the source that are not given here.

System: anti collagen antibodies induced arthritis (ACAIA)
Experiment: Anti collagen antibodies induced arthritis (ACAIA) in mice, intra-articular treatment: paw thickness, arthritis clinical score, body weight;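 further: mouse arthritis induced by IV anti-collagen mAb on day 0 plus IP LPS on day 4, with body weight, caliper paw thickness and 0-4 paw score tracked against a day 0 baseline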
Conditions: for Average clinical score per day (untreated): untreated leg
[1] = Dexamethasone 1 mg/kg IA (Group 7), Av
[2] = Dexamethasone 1 mg/kg IA (Group 7), individual animals
[3] = Dexamethasone 1 mg/kg IP (Group 6), Av
[4] = Dexamethasone 1 mg/kg IP (Group 6), individual animals

SMILES: C[C@@H]1C[C@H]2[C@@H]3CCC4=CC(=O)C=C[C@]4(C)[C@@]3(F)[C@@H](O)C[C@]2(C)[C@@]1(O)C(=O)CO [dexamethasone, Dexamethasone, reference compound]
- Paw thickness of treated leg (Avg.) (1 mg/kg IP (Group 6), Day 6): 2.25** mm
- Percent change of weight per day (Av) (1 mg/kg IP (Group 6), Day 6): 87.71%
- Percent change of weight per day (individual animal) (1 mg/kg IP (Group 6), Day 6): 88.44% and 86.7% and 89.66% and 86.18% and 86.85% and 89.74% and 86.41%
- Δ clinical score untreated -treated, Avg. Delta (1 mg/kg IP (Group 6), Day 6): 0.00 points
- Clinical score of treated leg (Avg.) (1 mg/kg IP (Group 6), Day 7): 0.00** points
- Paw thickness Avg. Delta untreated -treated (1 mg/kg IP (Group 6), Day 7): 0.03 mm
- Paw thickness of treated leg (Avg.) (1 mg/kg IP (Group 6), Day 7): 2.16**** mm
- Percent change of weight per day (Av) (1 mg/kg IP (Group 6), Day 7): 88.39%
- Percent change of weight per day (individual animal) (1 mg/kg IP (Group 6), Day 7): 89.45% and 85.22% and 88.67% and 87.5576% and 88.73% and 90.26% and 88.83%
- Δ clinical score untreated -treated, Avg. Delta (1 mg/kg IP (Group 6), Day 7): 0.00 points
- Clinical score of treated leg (Avg.) (1 mg/kg IP (Group 6), Day 8): 0.00** points
- Paw thickness Avg. Delta untreated -treated (1 mg/kg IP (Group 6), Day 8): 0.10 mm
- Percent change of weight per day (Av) (1 mg/kg IP (Group 6), Day 8): 88.85%
- Percent change of weight per day (individual animal) (1 mg/kg IP (Group 6), Day 8): 89.95% and 85.22% and 87.68% and 91.24% and 88.73% and 91.28% and 87.86%
- Δ clinical score untreated -treated, Avg. Delta (1 mg/kg IP (Group 6), Day 8): 0.00 points
- Clinical score of treated leg (Avg.) (1 mg/kg IP (Group 6), Day 10): 0.14* points
- Paw thickness Avg. Delta untreated -treated (1 mg/kg IP (Group 6), Day 10): −0.04 mm
- Paw thickness of treated leg (Avg.) (1 mg/kg IP (Group 6), Day 10): 2.09** mm
- Percent change of weight per day (Av) (1 mg/kg IP (Group 6), Day 10): 88.77%
- Percent change of weight per day (individual animal) (1 mg/kg IP (Group 6), Day 10): 89.45% and 86.7% and 88.18% and 91.24% and 88.26% and 89.23% and 88.35%
- Δ clinical score untreated -treated, Avg. Delta (1 mg/kg IP (Group 6), Day 10): −0.14 points
- Clinical score of treated leg (Avg.) (1 mg/kg IP (Group 6), Day 12): 0.00* points
- Paw thickness Avg. Delta untreated -treated (1 mg/kg IP (Group 6), Day 12): −0.02 mm
- Percent change of weight per day (Av) (1 mg/kg IP (Group 6), Day 12): 90.11%
- Percent change of weight per day (individual animal) (1 mg/kg IP (Group 6), Day 12): 91.9598% and 88.18% and 91.133* percent and 90.78% and 90.14% and 89.23% and 89.32%
- Δ clinical score untreated -treated, Avg. Delta (1 mg/kg IP (Group 6), Day 12): 0.00 points
- Weight per day, Baseline [1]: 19.8 g
- Weight per day, Day 3 [1]: 19.5 g
- Weight per day, Day 4 [1]: 18.8 g
- Weight per day, Day 5 [1]: 18.1 g
- Weight per day, Day 6 [1]: 17.5 g
- Weight per day, Day 7 [1]: 17.4 g
- Weight per day, Day 8 [1]: 17.7 g
- Weight per day, Day 10 [1]: 18.3 g
- Weight per day, Baseline [2]: 19.1 g and 20.3 g and 18.6 g and 19.2 g and 20.2 g (2×) and 20.9 g
- Weight per day, Day 3 [2]: 19.1 g (2×) and 19.8 g and 17.8 g and 19.9 g and 19.7 g and 20.6 g
- Weight per day, Day 4 [2]: 18.7 g and 19.6 g and 17.3 g and 17.9 g and 19.2 g and 19.1 g and 20.1 g
- Weight per day, Day 5 [2]: 17.3 g and 18.5 g and 16.5 g and 19.2 g and 18.2 g and 17.7 g and 19 g
- Weight per day, Day 6 [2]: 16.6 g and 17.8 g and 16 g and 19.6 g and 17.7 g and 17.1 g and 17.9 g
- Weight per day, Day 7 [2]: 17 g and 16.9 g and 16 g and 20 g and 17.4 g and 15.8 g and 18.7 g
- Weight per day, Day 8 [2]: 17.2 g and 16.9 g and 16.3 g and 20.1 g and 18 g and 16.4 g and 18.9 g
- Weight per day, Day 10 [2]: 17.4 g and 18.8 g and 16.3 g and 20 g and 18.2 g (2×) and 19.4 g
- Weight per day, Baseline [3]: 20.5 g
- Weight per day, Day 3 [3]: 19.6 g
- Weight per day, Day 4 [3]: 19.8 g
- Weight per day, Day 5 [3]: 18.1 g
- Weight per day, Day 6 [3]: 18 g
- Weight per day, Day 7 [3]: 18.1 g
- Weight per day, Day 8 [3]: 18.2 g
- Weight per day, Day 10 [3]: 18.2 g
- Weight per day, Baseline [4]: 19.9 g and 20.3 g (2×) and 21.7 g and 21.3 g and 19.5 g and 20.6 g
- Weight per day, Day 3 [4]: 18.9 g and 19.1 g and 19.3 g and 20.9 g and 20.5 g and 18.8 g and 19.8 g
- Weight per day, Day 4 [4]: 19.2 g and 19.4 g and 19.7 g and 20.9 g and 20.6 g and 19 g and 19.9 g
- Weight per day, Day 5 [4]: 17.6 g and 17.5 g (2×) and 18.6 g and 18.7 g and 18.5 g and 18.4 g
- Weight per day, Day 6 [4]: 17.6 g (2×) and 18.2 g and 18.7 g and 18.5 g and 17.5 g and 17.8 g
- Weight per day, Day 7 [4]: 17.8 g and 17.3 g and 18 g and 19 g and 18.9 g and 17.6 g and 18.3 g
- Weight per day, Day 8 [4]: 17.9 g and 17.3 g and 17.8 g (2×) and 19.8 g and 18.9 g and 18.1 g
- Weight per day, Day 10 [4]: 17.8 g and 17.6 g and 17.9 g and 19.8 g and 18.8 g and 17.4 g and 18.2 g
- average arthritis score, treated limbs (intra-articular 1 mg/kg, day 12, scale 0-4): 1.3
- Average clinical score per day (untreated) (1 mg/kg IA (Group 7), Baseline): 0.00 points
- Average clinical score per day (untreated) (1 mg/kg IA (Group 7), Day 3): 0.00 points
- Average clinical score per day (untreated) (1 mg/kg IA (Group 7), Day 4): 0.00 points
- Average clinical score per day (untreated) (1 mg/kg IA (Group 7), Day 5): 0.00 points
- Average clinical score per day (untreated) (1 mg/kg IA (Group 7), Day 6): 0.57 points
- Average clinical score per day (untreated) (1 mg/kg IA (Group 7), Day 7): 0.86 points
- Average clinical score per day (untreated) (1 mg/kg IA (Group 7), Day 8): 1.71 points
- Average clinical score per day (untreated) (1 mg/kg IA (Group 7), Day 10): 1.57 points
- Average clinical score per day (untreated) (1 mg/kg IA (Group 7), Day 12): 1.71 points
- Average clinical score per day (untreated) (1 mg/kg IP (Group 6), Baseline): 0.00 points
- Average clinical score per day (untreated) (1 mg/kg IP (Group 6), Day 3): 0.00 points
- Average clinical score per day (untreated) (1 mg/kg IP (Group 6), Day 4): 0.00 points
- Average clinical score per day (untreated) (1 mg/kg IP (Group 6), Day 5): 0.00 points
- Average clinical score per day (untreated) (1 mg/kg IP (Group 6), Day 6): 0.00 points
- Average clinical score per day (untreated) (1 mg/kg IP (Group 6), Day 7): 0.00 points
- Average clinical score per day (untreated) (1 mg/kg IP (Group 6), Day 8): 0.00 points
- Average clinical score per day (untreated) (1 mg/kg IP (Group 6), Day 10): 0.00 points
- Average clinical score per day (untreated) (1 mg/kg IP (Group 6), Day 12): 0.00 points
